ChEMBL document CHEMBL1201862, “PubChem BioAssay data set” (2004)
Where a name gives a salt, the structure may show the parent alone. Calls of active or inactive are those of the source.

Tests used:
[1] = biological target: Voltage-gated inwardly rectifying potassium channel KCNH2 (Homo sapiens, UniProt Q12809); details: Potency;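 note: confirmatory quantitative high-throughput screen measuring inhibition of hERG channel activity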
[2] = biological target: T1, Ubiquitin-conjugating enzyme E2 N (Homo sapiens, UniProt P61088); type: functional;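 note: Dose-response confirmation in a TR-FRET assay detecting UBC13-driven polyubiquitin chain formation, inhibition measured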
T1 sequence (P61088 whole entry): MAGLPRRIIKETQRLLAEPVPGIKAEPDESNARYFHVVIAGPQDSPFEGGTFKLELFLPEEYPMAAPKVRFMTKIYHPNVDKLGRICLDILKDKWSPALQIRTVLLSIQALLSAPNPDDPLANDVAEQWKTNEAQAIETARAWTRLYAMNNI

[3] = biological target: T2, Microphthalmia-associated transcription factor (Homo sapiens, UniProt O75030); experiment: reducers of TRPM1 reporter luminescence, concentration series – cell-based, SK-MEL-5, cherry-picked, set 3, MITF inhibitor project, dose response (AID 493073); type: functional;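 note: SK-MEL-5 melanoma cells with luciferase driven by the MITF target TRPM1 promoter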
T2 sequence (O75030 whole entry): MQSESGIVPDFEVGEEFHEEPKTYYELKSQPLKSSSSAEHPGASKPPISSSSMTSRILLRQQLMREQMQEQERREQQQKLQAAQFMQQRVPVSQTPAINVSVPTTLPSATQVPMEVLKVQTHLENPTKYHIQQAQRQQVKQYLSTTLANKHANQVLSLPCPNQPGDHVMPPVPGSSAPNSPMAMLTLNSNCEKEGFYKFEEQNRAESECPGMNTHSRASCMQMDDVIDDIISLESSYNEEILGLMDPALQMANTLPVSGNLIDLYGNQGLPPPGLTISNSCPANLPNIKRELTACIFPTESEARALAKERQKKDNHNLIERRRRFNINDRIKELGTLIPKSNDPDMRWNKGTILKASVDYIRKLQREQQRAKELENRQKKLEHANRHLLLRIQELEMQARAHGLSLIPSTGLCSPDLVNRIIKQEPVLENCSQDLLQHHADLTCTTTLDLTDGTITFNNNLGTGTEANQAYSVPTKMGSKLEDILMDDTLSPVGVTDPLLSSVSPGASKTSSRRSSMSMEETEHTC

[4] = viability of uninfected HEp-2 cells – cell-based, HTS, cytotoxicity control for RSV inhibitor project, dose response (AID 2410); type: functional; details: human respiratory syncytial virus
Vero [5] = experiment: cells; type: functional; details: Chlorocebus sabaeus
Vero [6] = experiment: cells; type: functional, cell-based; details: Chlorocebus sabaeus
Cytochrome P450 3A4 = Cytochrome P450 3A4 (Homo sapiens, UniProt P08684);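 note: CYP3A4 tested as one member of a cytochrome P450 panel screen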
[7] = biological target: Peroxisome proliferator-activated receptor gamma/Nuclear receptor coactivator 3 (Homo sapiens, UniProt P37231); experiment: TR-FRET dose response biochemical High Throughput Screening assay for agonists of the steroid receptor coactivator 3 (SRC-3) recruitment by the peroxisome proliferator-activated receptor gamma (PPAR gamma): non-selective agonists. [Related pubchem assays: 1301 (Confirmation screen.), 1048 (Primary screen.)]; type: functional
Chain of Peroxisome proliferator-activated receptor gamma/Nuclear receptor coactivator 3 (P37231 whole entry): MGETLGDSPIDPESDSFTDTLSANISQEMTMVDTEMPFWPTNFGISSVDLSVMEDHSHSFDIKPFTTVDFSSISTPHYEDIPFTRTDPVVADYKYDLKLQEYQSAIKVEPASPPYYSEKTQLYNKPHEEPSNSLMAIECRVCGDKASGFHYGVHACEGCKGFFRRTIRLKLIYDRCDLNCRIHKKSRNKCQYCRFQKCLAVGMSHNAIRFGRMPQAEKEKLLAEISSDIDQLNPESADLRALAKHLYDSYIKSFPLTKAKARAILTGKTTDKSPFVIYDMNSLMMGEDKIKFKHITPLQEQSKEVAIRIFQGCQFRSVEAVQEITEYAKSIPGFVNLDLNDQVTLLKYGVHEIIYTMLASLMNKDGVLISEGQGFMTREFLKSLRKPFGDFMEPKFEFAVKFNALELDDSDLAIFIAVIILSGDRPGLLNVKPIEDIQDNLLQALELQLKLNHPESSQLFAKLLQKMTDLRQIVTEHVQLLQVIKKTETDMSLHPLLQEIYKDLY
Chain of Peroxisome proliferator-activated receptor gamma/Nuclear receptor coactivator 3 (Q9Y6Q9 whole entry, further chain): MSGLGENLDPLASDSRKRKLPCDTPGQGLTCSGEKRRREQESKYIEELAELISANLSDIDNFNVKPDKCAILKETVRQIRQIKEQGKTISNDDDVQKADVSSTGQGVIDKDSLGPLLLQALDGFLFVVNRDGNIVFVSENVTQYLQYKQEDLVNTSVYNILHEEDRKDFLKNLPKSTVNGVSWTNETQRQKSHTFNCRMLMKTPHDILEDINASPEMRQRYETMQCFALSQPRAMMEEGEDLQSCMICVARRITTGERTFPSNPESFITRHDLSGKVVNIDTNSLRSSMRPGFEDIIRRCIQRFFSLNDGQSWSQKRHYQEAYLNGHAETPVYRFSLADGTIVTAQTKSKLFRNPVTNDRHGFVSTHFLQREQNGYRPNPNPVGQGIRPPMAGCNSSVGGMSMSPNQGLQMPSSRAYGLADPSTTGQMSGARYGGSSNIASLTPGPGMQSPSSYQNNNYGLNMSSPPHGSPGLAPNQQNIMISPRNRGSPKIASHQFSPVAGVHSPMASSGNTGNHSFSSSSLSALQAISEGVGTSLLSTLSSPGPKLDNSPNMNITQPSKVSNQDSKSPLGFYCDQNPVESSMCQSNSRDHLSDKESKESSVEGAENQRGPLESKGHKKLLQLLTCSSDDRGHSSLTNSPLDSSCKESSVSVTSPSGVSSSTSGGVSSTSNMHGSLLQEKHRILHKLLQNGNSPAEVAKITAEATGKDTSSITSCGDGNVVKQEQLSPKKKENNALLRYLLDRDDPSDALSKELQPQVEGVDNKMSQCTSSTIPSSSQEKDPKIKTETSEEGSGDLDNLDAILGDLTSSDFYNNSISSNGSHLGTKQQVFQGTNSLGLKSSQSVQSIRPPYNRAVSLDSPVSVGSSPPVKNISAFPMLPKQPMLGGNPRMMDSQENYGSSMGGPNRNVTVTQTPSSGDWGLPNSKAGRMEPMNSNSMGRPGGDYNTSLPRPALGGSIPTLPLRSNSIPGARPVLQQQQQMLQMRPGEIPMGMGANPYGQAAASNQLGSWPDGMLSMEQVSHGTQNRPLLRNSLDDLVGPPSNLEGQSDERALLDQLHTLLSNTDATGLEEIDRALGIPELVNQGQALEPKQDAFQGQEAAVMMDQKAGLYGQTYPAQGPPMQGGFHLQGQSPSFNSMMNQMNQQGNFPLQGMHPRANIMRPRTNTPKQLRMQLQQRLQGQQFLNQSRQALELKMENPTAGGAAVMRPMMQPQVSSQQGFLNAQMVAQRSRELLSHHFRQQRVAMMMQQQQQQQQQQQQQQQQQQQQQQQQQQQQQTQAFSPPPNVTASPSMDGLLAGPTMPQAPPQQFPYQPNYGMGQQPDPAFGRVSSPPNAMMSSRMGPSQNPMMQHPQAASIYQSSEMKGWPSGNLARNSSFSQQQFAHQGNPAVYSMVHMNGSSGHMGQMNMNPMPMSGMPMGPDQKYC

[8] = biological target: Peroxisome proliferator-activated receptor gamma/Nuclear receptor coactivator 1 (Homo sapiens, UniProt P37231); experiment: TR-FRET dose response biochemical High Throughput Screening assay for agonists of the steroid receptor coactivator 1 (SRC-1) recruitment by the peroxisome proliferator-activated receptor gamma (PPAR gamma): non-selective agonists. [Related pubchem assays (depositor defined):AID1300, AID1808, AID504735, AID631]; type: protein assay
[9] = biological target: Peroxisome proliferator-activated receptor gamma/Nuclear receptor coactivator 2 (Homo sapiens, UniProt P37231); experiment: TR-FRET dose response biochemical High Throughput Screening assay for agonists of the steroid receptor coactivator 2 (SRC-2) recruitment by the peroxisome proliferator-activated receptor gamma (PPAR gamma): non-selective agonists. [Related pubchem assays: 1297, 1032 ]; type: functional
Chain of Peroxisome proliferator-activated receptor gamma/Nuclear receptor coactivator 2 (P37231 whole entry): as the sequence (P37231 whole entry) above
Chain of Peroxisome proliferator-activated receptor gamma/Nuclear receptor coactivator 2 (Q15596 whole entry, further chain): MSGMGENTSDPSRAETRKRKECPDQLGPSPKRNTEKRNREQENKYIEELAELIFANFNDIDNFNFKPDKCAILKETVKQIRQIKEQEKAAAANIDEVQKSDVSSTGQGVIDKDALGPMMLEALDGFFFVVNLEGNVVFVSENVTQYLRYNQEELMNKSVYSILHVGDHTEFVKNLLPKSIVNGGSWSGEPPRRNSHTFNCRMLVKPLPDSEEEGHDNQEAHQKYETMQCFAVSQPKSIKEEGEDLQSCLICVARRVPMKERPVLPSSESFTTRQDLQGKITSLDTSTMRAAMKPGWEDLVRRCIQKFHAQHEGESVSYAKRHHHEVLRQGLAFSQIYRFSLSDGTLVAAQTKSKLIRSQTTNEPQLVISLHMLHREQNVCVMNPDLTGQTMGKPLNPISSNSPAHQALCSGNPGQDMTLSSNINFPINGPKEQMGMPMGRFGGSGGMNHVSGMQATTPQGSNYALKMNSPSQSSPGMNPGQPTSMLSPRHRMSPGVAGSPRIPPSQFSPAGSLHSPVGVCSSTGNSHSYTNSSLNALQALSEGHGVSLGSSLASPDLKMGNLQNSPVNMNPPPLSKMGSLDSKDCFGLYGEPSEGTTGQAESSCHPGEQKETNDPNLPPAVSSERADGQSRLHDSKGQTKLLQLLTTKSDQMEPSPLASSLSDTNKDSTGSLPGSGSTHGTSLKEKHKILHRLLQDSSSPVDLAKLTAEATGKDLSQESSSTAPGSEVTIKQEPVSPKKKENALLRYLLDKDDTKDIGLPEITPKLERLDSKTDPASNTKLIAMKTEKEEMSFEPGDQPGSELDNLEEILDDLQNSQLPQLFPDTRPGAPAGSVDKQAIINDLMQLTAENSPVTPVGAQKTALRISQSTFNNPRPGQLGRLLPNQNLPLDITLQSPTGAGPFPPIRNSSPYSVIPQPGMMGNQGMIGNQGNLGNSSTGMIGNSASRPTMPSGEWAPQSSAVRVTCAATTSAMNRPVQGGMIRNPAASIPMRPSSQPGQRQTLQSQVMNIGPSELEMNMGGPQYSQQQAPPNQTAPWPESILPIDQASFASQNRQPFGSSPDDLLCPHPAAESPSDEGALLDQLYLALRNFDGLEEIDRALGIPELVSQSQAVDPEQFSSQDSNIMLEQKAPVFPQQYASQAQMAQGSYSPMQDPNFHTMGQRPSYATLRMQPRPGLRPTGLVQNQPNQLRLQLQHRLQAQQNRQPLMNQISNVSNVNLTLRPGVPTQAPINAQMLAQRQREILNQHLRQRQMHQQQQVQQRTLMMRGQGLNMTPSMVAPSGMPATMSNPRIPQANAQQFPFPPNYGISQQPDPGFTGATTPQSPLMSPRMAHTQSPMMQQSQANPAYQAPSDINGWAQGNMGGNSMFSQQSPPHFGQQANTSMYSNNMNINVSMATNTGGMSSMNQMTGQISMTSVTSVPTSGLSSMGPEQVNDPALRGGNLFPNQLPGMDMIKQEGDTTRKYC

Protein RecA = biological target: T3, Protein RecA (Mycobacterium tuberculosis, UniProt P9WHJ3); experiment: Fluorescence Cell-Free Homogeneous Dose Retest to Identify Inhibitors of RecA-Intein Splicing Activity. [Related pubchem assays (depositor defined):AID2097, AID2223, AID489010, AID492950]; type: functional
T3 sequence (P9WHJ3 whole entry): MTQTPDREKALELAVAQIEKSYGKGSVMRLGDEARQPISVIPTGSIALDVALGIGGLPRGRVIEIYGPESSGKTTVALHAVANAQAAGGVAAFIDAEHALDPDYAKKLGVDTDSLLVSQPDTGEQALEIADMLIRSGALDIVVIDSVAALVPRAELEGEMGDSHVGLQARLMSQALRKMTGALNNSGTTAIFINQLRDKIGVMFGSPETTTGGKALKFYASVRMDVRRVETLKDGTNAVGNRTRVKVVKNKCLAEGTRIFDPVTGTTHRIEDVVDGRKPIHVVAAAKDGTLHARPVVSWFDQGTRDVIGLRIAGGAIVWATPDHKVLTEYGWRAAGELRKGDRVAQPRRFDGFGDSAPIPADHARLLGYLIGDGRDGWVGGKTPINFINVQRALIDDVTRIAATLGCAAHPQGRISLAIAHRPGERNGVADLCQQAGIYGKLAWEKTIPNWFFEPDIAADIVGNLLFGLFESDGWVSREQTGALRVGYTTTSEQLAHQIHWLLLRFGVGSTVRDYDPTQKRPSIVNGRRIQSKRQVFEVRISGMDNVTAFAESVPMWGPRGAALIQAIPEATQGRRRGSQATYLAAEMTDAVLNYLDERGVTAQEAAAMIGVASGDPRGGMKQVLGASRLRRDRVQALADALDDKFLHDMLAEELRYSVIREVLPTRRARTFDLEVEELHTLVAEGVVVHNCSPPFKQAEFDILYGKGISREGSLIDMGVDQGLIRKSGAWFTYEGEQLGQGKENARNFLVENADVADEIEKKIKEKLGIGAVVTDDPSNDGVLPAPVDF

[10] = biological target: T4, Replicative DNA helicase DnaB (Mycobacterium tuberculosis, UniProt P9WMR3); experiment: DnaB intein splicing inhibitors, dose response, biochemical, cell-free fluorescence (AID 449749); type: functional
T4 sequence (P9WMR3 whole entry): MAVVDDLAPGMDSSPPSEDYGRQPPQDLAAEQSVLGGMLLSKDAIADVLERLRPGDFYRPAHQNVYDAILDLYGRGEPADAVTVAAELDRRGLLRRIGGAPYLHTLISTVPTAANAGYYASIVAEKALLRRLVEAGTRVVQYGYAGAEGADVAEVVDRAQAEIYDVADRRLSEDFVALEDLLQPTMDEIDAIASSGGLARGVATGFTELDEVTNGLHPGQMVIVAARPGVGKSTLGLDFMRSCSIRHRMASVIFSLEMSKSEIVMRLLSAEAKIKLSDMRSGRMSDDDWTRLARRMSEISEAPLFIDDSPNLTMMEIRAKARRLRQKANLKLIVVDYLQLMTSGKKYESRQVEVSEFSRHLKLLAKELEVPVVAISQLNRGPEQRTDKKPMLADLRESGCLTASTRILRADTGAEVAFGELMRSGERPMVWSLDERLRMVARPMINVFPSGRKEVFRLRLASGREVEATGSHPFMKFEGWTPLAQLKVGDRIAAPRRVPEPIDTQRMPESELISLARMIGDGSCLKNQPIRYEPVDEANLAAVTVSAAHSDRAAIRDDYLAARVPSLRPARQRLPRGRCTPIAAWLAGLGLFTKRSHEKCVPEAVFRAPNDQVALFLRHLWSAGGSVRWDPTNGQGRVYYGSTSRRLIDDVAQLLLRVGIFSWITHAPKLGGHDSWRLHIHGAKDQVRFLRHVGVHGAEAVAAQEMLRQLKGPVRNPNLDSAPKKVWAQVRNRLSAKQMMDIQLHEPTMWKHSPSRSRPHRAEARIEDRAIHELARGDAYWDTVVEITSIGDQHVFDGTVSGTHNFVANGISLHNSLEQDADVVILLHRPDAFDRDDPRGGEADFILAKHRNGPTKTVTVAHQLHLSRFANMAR

[11] = Luminescence Cell-Based Dose Response HTS to Identify Inhibitors of 5'UTR Stem-Loop Driven Prion Protein mRNA Translation in H4 Neuroglioblastoma Cells. [Related pubchem assays: 1827 (Project Summary), 1813 (Primary HTS)]; type: functional
[12] = luciferase reporter signal suppression in cells – H4 neuroglioma cells, luminescence, dose response (AID 1990); type: functional, cell-based
[13] = alpha-synuclein stem-loop luciferase translation blockers – H4 neuroglioma cells, luminescence, confirmation (AID 1988); type: functional, cell-based
Coagulation factor XII = biological target: T5, Coagulation factor XII (Homo sapiens, UniProt P00748); type: functional;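 note: activated factor XIIa alpha cleaving a fluorogenic AMC peptide substrate; inhibitor potency from loss of enzyme activity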
T5 sequence (P00748 whole entry): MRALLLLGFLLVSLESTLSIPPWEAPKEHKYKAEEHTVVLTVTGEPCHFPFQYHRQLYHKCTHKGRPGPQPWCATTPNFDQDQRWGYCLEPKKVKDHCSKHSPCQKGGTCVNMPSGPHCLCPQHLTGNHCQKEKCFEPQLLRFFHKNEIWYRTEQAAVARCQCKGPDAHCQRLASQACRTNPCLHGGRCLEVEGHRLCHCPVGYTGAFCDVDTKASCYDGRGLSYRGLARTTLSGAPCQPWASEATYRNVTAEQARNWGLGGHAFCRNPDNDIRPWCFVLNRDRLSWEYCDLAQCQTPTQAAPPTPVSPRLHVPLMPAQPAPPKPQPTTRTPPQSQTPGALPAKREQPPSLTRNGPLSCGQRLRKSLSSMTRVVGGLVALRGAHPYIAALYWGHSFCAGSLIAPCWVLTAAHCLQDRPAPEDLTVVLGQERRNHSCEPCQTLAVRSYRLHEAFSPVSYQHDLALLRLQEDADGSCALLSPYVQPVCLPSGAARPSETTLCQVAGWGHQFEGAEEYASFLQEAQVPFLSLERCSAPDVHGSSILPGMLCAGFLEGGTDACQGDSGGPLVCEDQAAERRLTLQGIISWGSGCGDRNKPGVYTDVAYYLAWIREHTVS

[14] = NIH3T3 cell viability loss – ATP luminescence, mouse fibroblasts, counter-screen, dose response (AID 2010); type: functional, cell-based;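 note: cells exposed to compound for about 90 hours before reading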
[15] = Trypanosoma cruzi growth suppression in host cells – NIH3T3 host cells, beta-gal luminescence, confirmation (AID 2044); type: functional, cell-based;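 note: intracellular parasites grown in NIH/3T3 mouse fibroblasts as host cells; luminescent beta-galactosidase reporter signal from transgenic T. cruzi replicating inside host cells; inhibitors lower the luminescence signal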
Protein skinhead-1 = biological target: T6, Protein skinhead-1 (Caenorhabditis elegans, UniProt P34707); type: functional
T6 sequence (P34707 whole entry): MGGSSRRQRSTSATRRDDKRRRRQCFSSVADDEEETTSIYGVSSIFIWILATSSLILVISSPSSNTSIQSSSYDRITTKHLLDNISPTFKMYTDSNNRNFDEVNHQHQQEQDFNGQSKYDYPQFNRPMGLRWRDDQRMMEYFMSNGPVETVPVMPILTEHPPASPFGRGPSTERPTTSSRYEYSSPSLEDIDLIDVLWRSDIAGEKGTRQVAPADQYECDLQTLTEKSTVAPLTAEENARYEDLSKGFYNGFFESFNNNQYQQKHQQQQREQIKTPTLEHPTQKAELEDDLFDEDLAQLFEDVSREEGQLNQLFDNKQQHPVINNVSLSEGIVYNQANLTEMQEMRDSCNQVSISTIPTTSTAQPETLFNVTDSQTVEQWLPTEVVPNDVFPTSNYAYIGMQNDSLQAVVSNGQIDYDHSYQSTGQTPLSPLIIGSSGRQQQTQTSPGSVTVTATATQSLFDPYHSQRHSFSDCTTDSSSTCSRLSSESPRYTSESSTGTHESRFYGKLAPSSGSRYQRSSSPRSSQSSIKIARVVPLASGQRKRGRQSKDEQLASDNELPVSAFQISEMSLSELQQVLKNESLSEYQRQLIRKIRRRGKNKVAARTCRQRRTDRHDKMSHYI

[16] = Luminescence Cell-Based Dose Confirmation HTS to Identify Activators of 5'UTR Stem-Loop Driven Alpha-Synuclein mRNA Translation in H4 Neuroglioblastoma Cells. [Related pubchem assays: 1829 (Project Summary), 1814 (Primary HTS)]; type: functional
H4 = experiment: Luminescence Cell-Based Dose Response HTS to Identify Activators of 5'UTR Stem-Loop Driven Prion Protein mRNA Translation in H4 Neuroglioblastoma Cells. [Related pubchem assays: 1829 (Project Summary), 1814 (Primary HTS)]; type: functional; details: Homo sapiens
[17] = Luminescence Cell-Based Dose Response HTS to Identify Activators of Luciferase Translation or Activity in H4 […] Cells. [Related pubchem assays: 1829 (Project Summary), 1814 (Primary HTS)]; type: functional

Chain of Voltage-gated inwardly rectifying potassium channel KCNH2 (Q12809 whole entry): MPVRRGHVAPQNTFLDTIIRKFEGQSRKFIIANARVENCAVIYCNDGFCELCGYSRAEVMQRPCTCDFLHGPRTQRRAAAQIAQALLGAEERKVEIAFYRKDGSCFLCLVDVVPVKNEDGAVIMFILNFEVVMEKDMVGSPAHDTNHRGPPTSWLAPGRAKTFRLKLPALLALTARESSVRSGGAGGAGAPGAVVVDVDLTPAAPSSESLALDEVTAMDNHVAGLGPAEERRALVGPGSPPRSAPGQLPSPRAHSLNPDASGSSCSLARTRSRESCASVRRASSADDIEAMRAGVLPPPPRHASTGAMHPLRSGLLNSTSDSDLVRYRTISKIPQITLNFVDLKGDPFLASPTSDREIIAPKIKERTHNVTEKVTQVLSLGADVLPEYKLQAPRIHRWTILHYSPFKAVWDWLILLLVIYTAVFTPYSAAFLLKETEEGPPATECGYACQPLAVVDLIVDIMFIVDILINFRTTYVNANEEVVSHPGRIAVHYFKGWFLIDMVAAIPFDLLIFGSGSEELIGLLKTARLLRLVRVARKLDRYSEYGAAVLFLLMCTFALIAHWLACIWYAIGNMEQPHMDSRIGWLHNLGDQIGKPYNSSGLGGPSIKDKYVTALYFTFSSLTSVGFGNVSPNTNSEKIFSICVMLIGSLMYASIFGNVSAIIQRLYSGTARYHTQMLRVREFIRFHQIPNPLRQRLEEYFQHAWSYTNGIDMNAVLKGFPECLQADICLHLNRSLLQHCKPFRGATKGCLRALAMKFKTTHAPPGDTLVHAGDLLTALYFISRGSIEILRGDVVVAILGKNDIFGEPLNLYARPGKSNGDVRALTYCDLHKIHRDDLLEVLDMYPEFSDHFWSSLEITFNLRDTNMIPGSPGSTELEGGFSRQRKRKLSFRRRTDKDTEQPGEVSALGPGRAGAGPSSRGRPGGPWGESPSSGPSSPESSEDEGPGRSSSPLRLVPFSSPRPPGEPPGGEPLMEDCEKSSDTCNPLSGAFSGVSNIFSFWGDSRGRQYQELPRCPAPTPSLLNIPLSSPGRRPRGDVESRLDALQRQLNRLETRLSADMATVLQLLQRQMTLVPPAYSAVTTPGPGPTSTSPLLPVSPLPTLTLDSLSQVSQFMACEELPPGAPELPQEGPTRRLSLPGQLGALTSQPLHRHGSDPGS

CN1CCC(=C2c3ccccc3CC(=O)c3sccc32)CC1 [KETOTIFEN FUMARATE]
AC50 [1]: 22.4 µM (inconclusive)

N=c1n(CC(=O)c2ccc(Br)cc2)c2ccccc2n1Cc1ccccc1
IC50 [2]: > 20 µM (inactive) | AC50 [3]: 6.41 µM (active)

CCOc1ccc2nc(N)sc2c1
AC50 [1]: 28.2 µM (inconclusive)

CCOC(=O)c1c(-c2cccc(C)c2)csc1NC(=O)c1c(-c2ccccc2)noc1C
IC50 (cells): 9.89 µM (active) | CC50 [4]: 5.17 µM (active) | CC50 (Vero [5]): > 25 µM (active) | IC50 (Vero [6]): 1.43 µM (active) | AC50 (Cytochrome P450 3A4): 5.62 µM (inconclusive)

c1ccc2c(c1)-c1cccc3cccc-2c13 [FLUORANTHENE]
AC50 [1]: 12.6 µM (inconclusive)

Cc1cccc(Nc2nc(-c3ccccc3)c(C(=O)Nc3cccnc3)s2)c1
EC50 [7]: > 79.4 µM (not active) | EC50 [8]: 7.34 µM (active) | EC50 [9]: 7.24 µM (active)

O=C1c2ccccc2C(=O)c2c1ncn2-c1ccccc1
EC50 (Protein RecA): 229 µM (active) | AC50 [10]: 57.3 µM (active) | EC50 [11]: 15.6 µM (active) | EC50 [12]: 13.1 µM (active) | EC50 [13]: 9.51 µM (active) | AC50 [3]: 7.33 µM (active)

O=C(Nc1nc(-c2ccc(Cl)s2)cs1)c1cccs1
IC50 (Coagulation factor XII): 23.9 µM (active) | EC50 [14]: 8.5 µM (active) | EC50 [15]: 1.04 µM (active) | IC50 (Protein skinhead-1): 81.2 µM (inactive) | EC50 [16]: 34.3 µM (active) | EC50 (H4): 5.03 µM (active) | EC50 [17]: 15.1 µM (active)

Cn1c(=O)cc(SCC(=O)Nc2ccccn2)c2ccccc21
EC50 [7]: > 79.4 µM (not active) | EC50 [8]: > 79.4 µM (inactive) | EC50 [9]: > 79.4 µM (not active)
